Earlier results in US12269021B2, “Artificial protein catalyst” (Glytech, Inc., priority 2019, dated 2025).

Key:
[1] = system: various cancer cell strains
αvβ3 and αvβ5 integrins = settings: integrins overexpressed on the cancer cell surface

Row | Molecule | cytotoxic activity [1] | integrin inhibition (αvβ3 and αvβ5 integrins)
1 | CC(C)=CCC/C(C)=C/CC/C(C)=C/COc1ccc2ccc(=O)oc2c1 [Umbelliprenin] | cytotoxic activity | –
2 | cRGD | – | inhibits
